Data as given in PMC9025605, “Polymerized β-Cyclodextrin-Based Injectable Hydrogel for Sustained Release of 5-Fluorouracil/Methotrexate Mixture in Breast Cancer Management: In Vitro and In Vivo Analytical Validations” (Pharmaceutics, 2022).
Read-outs that look alike come from different tables or passages of the source.

Experiments:
[1] = In vitro release of 5-FU and MTX from the medicated hydrogel in PBS at 37 °C; type: physicochemical; conditions: for duration of quantitative release from hydrogel: 0.1% w/v; for drug released from hydrogel within the first day / drug released from hydrogel within the second day: 0.1% w/v drug in hydrogel
Description: Several samples (n = 6) of the medicated hydrogel (0.5 g, containing 0.5 mg of each 5-FU and MTX), were placed in 2-mL glass vials and allowed to be incubated at 4 °C for 2 h. Next, one mL of PBS was added above the formulated hydrogel mass and allowed to be incubated in a thermostatic water bath under a shaking rate of 50 rpm at 37 °C. After specific time intervals (each 24 h), 700 µL of the supernatant was withdrawn and replaced immediately with a fresh-prepared PBS, previously incubated at the same temperature to ensure the sink conditions. This process of sample withdrawal and replacing was allowed to continue until the complete clearance or full release of both two incorporated drugs from the hydrogel samples. Thus, the concentration of 5-FU and MTX in the mixture, in each collected sample, was measured simultaneously at 266 nm and 302 nm, respectively, with the aid of the spectrophotometric method, as mentioned before.

[2] = Pharmacokinetic study after intratumoral injection (plasma, HPLC); type: in vivo, albino female rats; conditions: for Cmax: rat plasma
Description: The present in vivo works was performed on albino female rats (weighing 185 ± 15.1 g). The ethical approval of all the experiments was issued by the Faculty of Pharmacy, Al-Azhar University, under no AZ-AS/PH/2/C/2021. The rats were acclimatized at room temperature with a 12-h light/12-h dark cycle. Tumor-induction of 48 female rats were randomly divided into the four independent groups (with n = 12 per each group × triple trials); G1 was the controlled group, which is positive control and were received no any type of medications; G2 received a sole dose of 5-FU saline solution (100 mg/kg); G3 received a combined mixture of 5-FU/MTX saline solution (respectively, 100 and 40 mg/kg); and, finally, G4 received 5-FU/MTX hydrogel. The sole 5-FU and/or combined with MTX doses in normal saline were injected into rats using normal syringes, while the injectable medicated hydrogel doses were injected using a mixing syringe device (Doowon Meditec Corp., Youngin City, Republic of Korea). After finishing the administration processes, blood samples were collected at certain time intervals (0.5, 1, 2, 4, 6, 8, 10, 12, and 14 h). HPLC chromatographic analysis was utilized for the detection of drug concentrations.
One mL of a plasma sample in an Eppendorf tube was initially mixed with phosphate buffer (0.2 mL of 0.5 M at pH 8), after being mixed in a vortex, and an ethyl acetate solution (4.0 mL) was added and mixed in a vortex for 1 min. Then, the contents of the tube were centrifuged at 5000 rpm and temperature 10 °C for 5 min. The organic phase was taken and evaporated until dry, by using a stream of nitrogen gas at 55 °C. The drug mixture in the residue was reconstituted by a solution of potassium dihydrogen phosphate (100 µL of 0.01 M, at pH 4.0), and, then, the resulted solution was filtrated through a 0.2 μm filter syringe, before transferring into autosampler vials of the chromatographic analysis.
A high-performance liquid chromatography, HPLC (Parkin Elmer, JASCO Corporation, Tokyo, Japan), equipped with an autosampler, was used through this study. The detection method was performed using a variable wavelength UV detector, which adjusted at 266 nm for both drugs. The analytical Phenomenex, C18 symmetry RPh-column (4.6 × 250 mm; 5 µm PS) (Cap cell Pak UG120, Shiseido, Tokyo, Japan), was used at 40 °C. The mobile phase was an isocratic mixture (89:11, v/v) of, respectively, methanol and potassium dihydrogen phosphate (10 mM and adjusted to pH 4 with the aid orthophosphoric acid), which was pumped at a flow rate of 1.0 mL/min. The injected volume was 20 µL.
The concentrations of 5-FU and MTX in different rats’ plasma samples (n = 6) were calculated from the corresponding calibration curves equation, developed in the above HPLC method. The plasma concentration-time (Cp/) curve of 5FU/MTX (plasma concentrations; µg/mL in case of using a vehicle of saline, and ng/mL in case of using a vehicle hydrogel) was constructed for both drugs. Next, from the constructed (Cp/t) curves, all the common pharmacokinetic parameters of both drugs were determined using the following Equation (1). […] Moreover, the area under the Cp/t curve (AUC0-24 and AUC0-∞) (ng. h/mL) was measured using the trapezoidal rule to indicate the extent of drug absorption. The peak Cp (Cmax), the time corresponding to the maximum Cp (Tmax), and the half-life, t1/2 (h), were calculated.

[3] = tested on: breast tumor (chemically induced breast cancer); experiment: Effect on tumor growth (tumor volume, % inhibition); type: in vivo, female rats; conditions: negative = tumor growth, read from Figure 6
Description: For transplantation experiments, recipient syngeneic female rats (6–7 weeks old) were anesthetized with an intramuscular injection of ketamine (8.0 mg/kg dose) and xylazine (10 mg/kg dose). Breast cancer was induced to the investigated rats by chemical induction using […], previously reported techniques. […] The tumor size for all animals was examined using a Vernier caliper (micrometer-Ozaki Ltd., Tokyo, Japan) and calculated using the following Equation (2). TV (mm^3) = 1/2 × Length × Width^2(2)
Thus, the changes in a tumor volume in rats were determined every 5 days for 15 days after administration of the injectable medicated hydrogel (contains a concentration of 100 and 40 mg/kg, respectively, for 5-FU and MTX). The antitumor effect was monitored via measuring both the relative tumor volume (RTV), representing the tumor volume after treatment, using Equation (3). (3) % RTV=(Vt)/(V0)×100 where, Vt represents the tumor volume at each time interval, and V0 is a tumor volume directly after drug injection. The % of tumor volume inhibition was calculated using the following Equation (4). (4) % Inhibition =1−(Vt)/(V0)×100

[4] = tested on: mammary gland tissues; experiment: Histopathological examination of tumor masses (H and E); type: in vivo, female rats; conditions: tumor-bearing rats versus untreated G1
Description: Several tissue samples (n = 3) were taken from the tumor masses of the induced mammary glands and were fixed in formalin for 24 h. The fixed samples were processed for the usual histological procedures for hematoxylin and eosin stains, the counter staining of ultra-thin paraffin sections (5 µm; Micro HM 360® Microtome, Marshall Scientific, Hampton Virginia, USA). The stained sections were examined under a light microscope (Olympus B × 46) and were digitally photographed using its connected Olympus DP 21 digital camera (Olympus Corporation, Tokyo, Japan).

[5] = parameters: method as in PMID 1246307, PMID 18794772, PMID 15018974; conditions: cited from earlier work

| duration of quantitative release from hydrogel [1] | drug released from hydrogel within the first day [1] [%] | drug released from hydrogel within the second day [1] [%] | completeness of the release profile of 5-FU ([1]; drug concentration 0.1%) [days] | completeness of the release profile of 5-FU ([1]; drug concentration 0.3%) [days] | completeness of the release profile of 5-FU ([1]; drug concentration 0.5%) [days] | Tmax ([2]; female, rat, plasma, 100 mg/kg, sole administration of 5-FU in saline) [min] | Cmax ([2]; female, 5-FU alone in saline, 100 mg/kg, intratumoral, read-out: Cmax) [ng/mL] | time within which in vivo release ended ([2]; free 5-FU solution, 100 mg/kg in saline) [h] | elimination half-life (t1/2) ([2]; free 5-FU solution, first order) [min] | Cmax ([2]; female, other: intratumoral injection, MTX 40 mg/kg, combined with 5-FU in saline, read-out: Cmax of MTX) [ng/mL] | Compound | % Inhibition of tumor volume ([3]; 5 days after treatment) [%] | % Inhibition of tumor volume ([3]; 10 days after treatment) [%] | % Inhibition of tumor volume ([3]; 15 days after treatment) [%] | histopathological finding in mammary gland tissue [4] | half-life [5] [min] |
| --- | --- | --- | --- | --- | --- | --- | --- | --- | --- | --- | --- | --- | --- | --- | --- | --- |
| two weeks | 15 | 38 | ≤ 14 | ≤ 18 | ≤ 21 | 60 | 25200 | ≤ 7 | 30 |  | O=c1[nH]cc(F)c(=O)[nH]1 [5-FU, 5-fluorouracil] | -25 | -90 | -185 | Only mild improvement | 10 to 20 |
| two weeks | 40 | 60 |  |  |  |  |  |  |  | 15200 | CN(Cc1cnc2nc(N)nc(N)c2n1)c1ccc(C(=O)N[C@@H](CCC(=O)O)C(=O)O)cc1 [MTX, methotrexate] |  |  |  |  |  |
